What follows are compounds tested against T1, human TLR8 (Homo sapiens, UniProt Q9NR97) (assay: TLR8 inhibition reporter assay (HEK-Blue cells, SEAP reporter, R848 stimulation)). Conditions: HEK-Blue cells overexpressing human TLR8, R848 15.9 μM.
T1 construct: host or cells: HEK-Blue cells
T1 sequence (Q9NR97 27-1041): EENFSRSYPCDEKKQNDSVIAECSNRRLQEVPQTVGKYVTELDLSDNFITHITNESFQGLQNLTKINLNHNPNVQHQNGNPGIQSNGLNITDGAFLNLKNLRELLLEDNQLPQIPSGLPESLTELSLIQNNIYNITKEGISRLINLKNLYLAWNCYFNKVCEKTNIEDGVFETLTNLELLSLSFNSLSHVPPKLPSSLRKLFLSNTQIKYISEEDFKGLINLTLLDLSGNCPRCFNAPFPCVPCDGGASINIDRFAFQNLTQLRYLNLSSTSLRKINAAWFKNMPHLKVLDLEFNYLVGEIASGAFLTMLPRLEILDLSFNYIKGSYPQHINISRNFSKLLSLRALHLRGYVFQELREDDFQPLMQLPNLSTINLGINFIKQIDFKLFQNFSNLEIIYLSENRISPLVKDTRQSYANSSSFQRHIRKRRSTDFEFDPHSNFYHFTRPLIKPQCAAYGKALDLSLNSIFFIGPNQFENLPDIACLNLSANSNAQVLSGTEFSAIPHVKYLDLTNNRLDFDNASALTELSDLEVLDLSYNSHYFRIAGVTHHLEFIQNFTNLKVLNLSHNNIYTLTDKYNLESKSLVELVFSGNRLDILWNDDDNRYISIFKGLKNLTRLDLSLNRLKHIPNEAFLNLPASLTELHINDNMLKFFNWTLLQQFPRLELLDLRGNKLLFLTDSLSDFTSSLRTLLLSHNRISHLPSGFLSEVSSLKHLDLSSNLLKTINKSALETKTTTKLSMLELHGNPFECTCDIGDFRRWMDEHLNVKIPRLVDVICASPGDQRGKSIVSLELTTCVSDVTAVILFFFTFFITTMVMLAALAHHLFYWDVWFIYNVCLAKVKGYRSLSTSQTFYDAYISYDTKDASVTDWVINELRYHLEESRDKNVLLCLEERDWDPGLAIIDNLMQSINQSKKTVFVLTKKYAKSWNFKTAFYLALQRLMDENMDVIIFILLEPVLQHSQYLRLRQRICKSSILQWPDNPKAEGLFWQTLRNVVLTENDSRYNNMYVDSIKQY
Type: cell-based
In short: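 HEK-Blue reporter cells (15,000/well TLR7, 20,000 TLR8) exposed to compound over 0.05 nM–50 μM, agonist-stimulated (R848 for TLR8, gardiquimod for TLR7), 22 h at 37 °C, 5% CO2. SEAP read with HEK-Blue Detection; % inhibition relative to agonist-plus-DMSO and known-inhibitor controls.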

IC50 | SMILES
1420 nM | COc1ccc(-c2[nH]c3ccc(C4CCN(C(=O)CCc5cccnc5)CC4)cc3c2CC(F)(F)F)cc1OC [Example 348, 1-(4-(2-(3,4-dimethoxyphenyl)-3-(2,2,2-trifluoroethyl)-1H-indol-5-yl)piperidin-1-yl)-3-(pyridin-3-yl) propan-1-one]
671 nM | COc1ccc(-c2[nH]c3ccc(C4CCN(C(=O)COc5cccnc5)CC4)cc3c2CC(F)(F)F)cc1OC [Example 349, 1-(4-(2-(3,4-dimethoxyphenyl)-3-(2,2,2-trifluoroethyl)-1H-indol-5-yl)piperidin-1-yl)-2-(pyridin-3-yloxy)ethan-1-one]
2050 nM | COc1ccc(-c2[nH]c3ccc(C4CCN(C(=O)CCC(F)(F)F)CC4)cc3c2CC(F)(F)F)cc1OC [Example 350, 1-(4-(2-(3,4-dimethoxyphenyl)-3-(2,2,2-trifluoroethyl)-1H-indol-5-yl)piperidin-1-yl)-4,4,4-trifluorobutan-1-one]
57 nM | COc1ccc(-c2[nH]c3ccc(C4CCN(C(=O)CCCN(C)C)CC4)cc3c2CC(F)(F)F)cc1OC [Example 351, 1-(4-(2-(3,4-dimethoxyphenyl)-3-(2,2,2-trifluoroethyl)-1H-indol-5-yl)piperidin-1-yl)-4-(dimethylamino)butan-1-one]
765 nM | COc1ccc(-c2[nH]c3ccc(C4CCN(C(=O)C[C@H](C)O)CC4)cc3c2CC(F)(F)F)cc1OC [Example 352, (S)-1-(4-(2-(3,4-dimethoxyphenyl)-3-(2,2,2-trifluoroethyl)-1H-indol-5-yl)piperidin-1-yl)-3-hydroxybutan-1-one]
964 nM | COc1ccc(-c2[nH]c3ccc(C4CCN(C(=O)C[C@@H](C)O)CC4)cc3c2CC(F)(F)F)cc1OC [Example 353, (R)-1-(4-(2-(3,4-dimethoxyphenyl)-3-(2,2,2-trifluoroethyl)-1H-indol-5-yl)piperidin-1-yl)-3-hydroxybutan-1-one]
82 nM | COc1ccc(-c2[nH]c3ccc(C4CCN(C(=O)CN(C)C)CC4)cc3c2CC(F)(F)F)cc1OC [Example 354, 1-(4-(2-(3,4-dimethoxyphenyl)-3-(2,2,2-trifluoroethyl)-1H-indol-5-yl)piperidin-1-yl)-2-(dimethylamino)ethan-1-one]
41 nM | COc1ccc(-c2[nH]c3ccc(C4CCN(C)CC4)cc3c2CC(F)(F)F)cc1OC [Example 355, 2-(3,4-dimethoxyphenyl)-5-(1-methylpiperidin-4-yl)-3-(2,2,2-trifluoroethyl)-1H-indole]
626 nM | CCNC(=O)N1CCC(c2ccc3[nH]c(-c4ccc(OC)c(OC)c4)c(CC(F)(F)F)c3c2)CC1 [Example 356, 4-(2-(3,4-dimethoxyphenyl)-3-(2,2,2-trifluoroethyl)-1H-indol-5-yl)-N-ethylpiperidine-1-carboxamide]
943 nM | COc1ccc(-c2[nH]c3ccc(C4CCN(C(=O)NCCc5ccccc5)CC4)cc3c2CC(F)(F)F)cc1OC [Example 357, 4-(2-(3,4-dimethoxyphenyl)-3-(2,2,2-trifluoroethyl)-1H-indol-5-yl)-N-phenethylpiperidine-1-carboxamide]
2920 nM | COc1ccc(-c2[nH]c3ccc(C4CCN(C(=O)NCc5ccco5)CC4)cc3c2CC(F)(F)F)cc1OC [Example 358, 4-(2-(3,4-dimethoxyphenyl)-3-(2,2,2-trifluoroethyl)-1H-indol-5-yl)-N-(furan-2-ylmethyl)piperidine-1-carboxamide]
63 nM | COc1ccc(-c2[nH]c3ccc(C4CCN(CC(=O)N5CCC(N6CCCCC6)CC5)CC4)cc3c2CC(F)(F)F)cc1OC [Example 359, 1-([1,4′-bipiperidin]-1′-yl)-2-(4-(2-(3,4-dimethoxyphenyl)-3-(2,2,2-trifluoroethyl)-1H-indol-5-yl)piperidin-1-yl)ethan-1-one]
43 nM | COc1ccc(-c2[nH]c3ccc(C4CCN(CC(=O)NCCC5CCCN5C)CC4)cc3c2CC(F)(F)F)cc1OC (stereo not shown) [Example 360, 2-(4-(2-(3,4-dimethoxyphenyl)-3-(2,2,2-trifluoroethyl)-1H-indol-5-yl)piperidin-1-yl)-N-(2-(1-methylpyrrolidin-2-yl)ethyl) acetamide]
109 nM | COc1ccc(-c2[nH]c3ccc(C4CCN(CC(=O)N5CCN(C(C)=O)CC5)CC4)cc3c2CC(F)(F)F)cc1OC [Example 361, 1-(4-acetylpiperazin-1-yl)-2-(4-(2-(3,4-dimethoxyphenyl)-3-(2,2,2-trifluoroethyl)-1H-indol-5-yl)piperidin-1-yl)ethan-1-one]
109 nM | COc1ccc(-c2[nH]c3ccc(C4CCN(CC(=O)N5CCN(C(C)C)CC5)CC4)cc3c2CC(F)(F)F)cc1OC [Example 362, 2-(4-(2-(3,4-dimethoxyphenyl)-3-(2,2,2-trifluoroethyl)-1H-indol-5-yl)piperidin-1-yl)-1-(4-isopropylpiperazin-1-yl)ethan-1-one]
44 nM | COc1ccc(-c2[nH]c3ccc(C4CCN(CC(=O)N5CCC(N6CCN(C)CC6)CC5)CC4)cc3c2CC(F)(F)F)cc1OC [Example 363, 2-(4-(2-(3,4-dimethoxyphenyl)-3-(2,2,2-trifluoroethyl)-1H-indol-5-yl)piperidin-1-yl)-1-(4-(4-methylpiperazin-1-yl)piperidin-1-yl) ethan-1-one]
76 nM | COc1ccc(-c2[nH]c3ccc(C4CCN(CC(=O)N5CCC(N(C)C)CC5)CC4)cc3c2CC(F)(F)F)cc1OC [Example 364, 2-(4-(2-(3,4-dimethoxyphenyl)-3-(2,2,2-trifluoroethyl)-1H-indol-5-yl)piperidin-1-yl)-1-(4-(dimethylamino)piperidin-1-yl)ethan-1-one]
24 nM | COc1ccc(-c2[nH]c3ccc(C4CCN(CC(=O)N(C)CCCN(C)C)CC4)cc3c2CC(F)(F)F)cc1OC [Example 365, 2-(4-(2-(3,4-dimethoxyphenyl)-3-(2,2,2-trifluoroethyl)-1H-indol-5-yl)piperidin-1-yl)-N-(3-(dimethylamino)propyl)-N-methylacetamide]
23 nM | COc1ccc(-c2[nH]c3ccc(C4CCN(CC(=O)N5CCN(c6ccncc6)CC5)CC4)cc3c2CC(F)(F)F)cc1OC [Example 366, 2-(4-(2-(3,4-dimethoxyphenyl)-3-(2,2,2-trifluoroethyl)-1H-indol-5-yl)piperidin-1-yl)-1-(4-(pyridin-4-yl)piperazin-1-yl) ethan-1-one]
36 nM | COc1ccc(-c2[nH]c3ccc(C4CCN(CC(=O)N(C)CCN(C)C)CC4)cc3c2CC(F)(F)F)cc1OC [Example 367, 2-(4-(2-(3,4-dimethoxyphenyl)-3-(2,2,2-trifluoroethyl)-1H-indol-5-yl)piperidin-1-yl)-N-(2-(dimethylamino)ethyl)-N-methylacetamide]
74 nM | COc1ccc(-c2[nH]c3ccc(C4CCN(CC(=O)N5CCN(c6ncccn6)CC5)CC4)cc3c2CC(F)(F)F)cc1OC [Example 368, 2-(4-(2-(3,4-dimethoxyphenyl)-3-(2,2,2-trifluoroethyl)-1H-indol-5-yl)piperidin-1-yl)-1-(4-(pyrimidin-2-yl)piperazin-1-yl)ethan-1-one]
43 nM | COc1ccc(-c2[nH]c3ccc(C4CCN(CC(=O)N5CCC(C(N)=O)CC5)CC4)cc3c2CC(F)(F)F)cc1OC [Example 369, 1-(2-(4-(2-(3,4-dimethoxyphenyl)-3-(2,2,2-trifluoroethyl)-1H-indol-5-yl)piperidin-1-yl)acetyl)piperidine-4-carboxamide]

Source: US11180474B2 (BRISTOL-MYERS SQUIBB COMPANY, priority 2016, dated 2021)
